# Article PMC3669009, “Degradation of Phytate by the 6-Phytase from Hafnia alvei: A Combined Structural and Solution Study” (PLoS ONE, 2013)
# pKd: −log10 of the molar value.
# How the values were obtained:
# [1] = target: T1, YkPhy (Yersinia kristensenii phytase) (Yersinia kristensenii, UniProt H9TUK6); conditions: SPGS buffer pH 5.0 (phosphate from crystallisation solution); two Pi in the active site
# T1 construct: gene phyA
# [2] = target: T2, HaPhy (Hafnia alvei phytase) (Hafnia alvei, UniProt H9TUK5); experiment: X-ray crystal structure of the complex, […] Å; format: binding; conditions: 0.2 M potassium/sodium tartrate, pH 8.4-9.1 (from crystallisation solution); active site; second tartrate at occupancy 0.25
# T2 construct: gene phyA; recombinant mature enzyme, purified, residues 1-416; expression details only in SI; monomer in the asymmetric unit; four disulphides
# T2 sequence (H9TUK5 34-446): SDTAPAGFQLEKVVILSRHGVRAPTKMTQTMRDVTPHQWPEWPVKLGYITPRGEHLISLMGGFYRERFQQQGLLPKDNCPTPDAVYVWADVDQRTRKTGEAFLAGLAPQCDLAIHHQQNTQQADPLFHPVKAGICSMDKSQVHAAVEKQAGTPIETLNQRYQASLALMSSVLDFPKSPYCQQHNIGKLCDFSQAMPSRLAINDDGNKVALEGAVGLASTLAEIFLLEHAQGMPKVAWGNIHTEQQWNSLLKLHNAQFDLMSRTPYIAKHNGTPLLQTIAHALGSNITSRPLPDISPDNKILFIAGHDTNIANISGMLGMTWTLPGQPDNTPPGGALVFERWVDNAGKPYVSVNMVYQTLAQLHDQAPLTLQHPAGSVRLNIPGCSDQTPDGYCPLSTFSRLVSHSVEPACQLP
# [3] = target: T2, HaPhy (Hafnia alvei phytase); experiment: isothermal titration calorimetry; format: binding
# T1 sequence (H9TUK6 entry or part of it): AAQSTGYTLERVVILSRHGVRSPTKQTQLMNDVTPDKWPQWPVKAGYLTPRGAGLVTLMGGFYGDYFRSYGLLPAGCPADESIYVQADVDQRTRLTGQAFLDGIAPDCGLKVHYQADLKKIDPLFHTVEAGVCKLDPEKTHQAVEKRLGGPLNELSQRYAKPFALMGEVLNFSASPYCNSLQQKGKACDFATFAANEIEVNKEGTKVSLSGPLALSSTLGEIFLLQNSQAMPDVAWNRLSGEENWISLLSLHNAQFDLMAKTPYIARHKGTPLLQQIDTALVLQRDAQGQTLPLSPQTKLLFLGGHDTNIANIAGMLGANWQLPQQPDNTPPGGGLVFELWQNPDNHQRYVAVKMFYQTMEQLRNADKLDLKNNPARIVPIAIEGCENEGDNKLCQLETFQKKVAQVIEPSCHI
smiles,measurement,setting,value
"O=P(O)(O)O [Pi, phosphate]","X-ray crystal structure of the complex, 1.67 Å",[1],Each monomer contains two Pi molecules in its active site
O=C(O)C(O)C(O)C(=O)O (stereo not drawn) [L(+)-tartrate],"X-ray crystal structure of the complex, 1.60 Å",[2],"The active site contained a tartrate molecule, a component of the crystallisation buffer"
"O=S(=O)(O)O[C@H]1[C@H](OS(=O)(=O)O)[C@@H](OS(=O)(=O)O)[C@H](OS(=O)(=O)O)[C@@H](OS(=O)(=O)O)[C@H]1OS(=O)(=O)O [MIHS, myo-inositol hexakissulphate]",pKd,[3],~6.80
